Square brackets hold non-standard residues; d marks the D form. Peptide text beside a SMILES is read from it. * marks the point of attachment. NMeVal(N-(CH2)3COOH) = CC(C)[C@@H](C(=O)*)N(C)CCCC(=O)O; Dolaproine = CO[C@@H]([C@@H]1CCCN1)[C@@H](C)C(=O)O; Dil = CC[C@H](C)[C@H](NC)[C@@H](CC(=O)O)OC; X3 = CC(C)[C@@H](C(=O)*)N(C)CCCCCC(=O)O; NMe(benzyl) = CN(Cc1ccccc1)*; X4 = C1C2CC3CC1CC(CO*)(C2)C3; X6 = C1C2CC3CC1CC(O*)(C2)C3; X2 = c1ccc2c(CO*)cccc2c1; NHBn = c1ccc(CN*)cc1; OBn = c1ccc(CO*)cc1; OtBu = CC(C)(C)O*
Experiments:
[1] = test system: human renal carcinoma cell line 786-0; assay: Anti-proliferative effect on renal cell carcinoma 786-0 cell line (MTT assay); format: cell-based; details: Homo sapiens, 786-0 cells, incubation 48 to 96 hours, serum free medium or 2% FCS
Method: B-1. Determination of Anti-proliferative Effects of Renal Cell Carcinoma 786-0 Cell Line:
A defined number of cells of the human renal carcinoma cell line 786-0 were cultured in a 96 well micro titer plate in rich medium (2500 or 7.000 cells/well) and then incubated over night at 37° C./5% CO2. After 18 hours the seed medium was replaced by a serum free medium or medium with 2% FCS. The treatment began with measuring out the respective test substances in varying concentrations (10^−5 M to 10^−14 M). Incubation times of between 48 hours and 96 hours were chosen. The proliferation was determined by means of the MTT assay (ATCC, Manassas, Va., USA, catalogue no. 30-1010K). After completion of incubation period the MTT reagent was incubated with the cells for 4 hours before lysis occurred over night by measuring out the detergent. The created stain was detected at 570 nm. The proliferation of the cells, which were treated identically to the other cells but without the test substance was defined as the 100% value. The data obtained from this test represent triple determinations and at least two experiments had been carried out independently of each other.

HT-29 wt cell line = assay: Anti-proliferative effect on HT-29 wt cell line (MTT assay); format: cell-based, human; details: Homo sapiens, HT-29 wt cells, incubation 48 to 96 hours, medium with 10% FCS
Method: B-2. Determination of Anti-proliferative Effects of HT-29 wt Cell Line:
After 18 hours the seed medium was replaced by a fresh medium with 10% FCS. The treatment started with measuring out the respective test substance. The dose-response curves were determined of the investigative substances with a concentration of 10^−5 M to 10^−14 M (1:10 dilutions). Incubation times of between 48 hours and 96 hours were chosen. The proliferation was detected by means of the MTT assay (ATCC, Manassas, Va., USA, catalogue no. 30-1010K). After completion of selected incubation period the MTT reagent was incubated with the cells for 4 hours before lysis occurred over night by measuring out the detergent. The created stain was detected at 570 nm. The proliferation of the cells, which were treated identically to the other cells but without the test substance, was defined as the 100% value. The data obtained from this test represent triple determinations and at least two experiments had been carried out independently of each other.

SMILES: CC[C@H](C)[C@@H]([C@@H](CC(=O)N1CCC[C@H]1[C@H](OC)[C@@H](C)C(=O)N[C@@H](Cc1ccccc1)C(=O)OCc1cccc2ccccc12)OC)N(C)C(=O)[C@@H](NC(=O)[C@H](C(C)C)N(C)CCCC(=O)O)C(C)C [Example 1, N-(3-carboxypropyl)-N-methyl-L-valyl-N-[(3R,4S,5S)-3-methoxy-1-{(2S)-2-[(1R,2R)-1-methoxy-2-methyl-3-{[(2S)-1-(1-naphthylmethoxy)-1-oxo-3-phenylpropane-2-yl]amino}-3-oxopropyl]pyrrolidin-1-yl}-5-methyl-1-oxoheptan-4-yl]-N-methyl-L-valinamide] ({NMeVal(N-(CH2)3COOH)}-V[Dil][Dolaproine]F-X2)
- IC50 [1]: 1.1 nM
- IC50 (HT-29 wt cell line): 0.1 nM

SMILES: CC[C@H](C)[C@@H]([C@@H](CC(=O)N1CCC[C@H]1[C@H](OC)[C@@H](C)C(=O)N[C@@H](Cc1ccccc1)C(=O)OC12CC3CC(CC(C3)C1)C2)OC)N(C)C(=O)[C@@H](NC(=O)[C@H](C(C)C)N(C)CCCC(=O)O)C(C)C [Example 2, N-(3-carboxypropyl)-N-methyl-L-valyl-N-[(3R,4S,5S)-1-{(2S)-2-[(1R,2R)-3-{[(2S)-1-(adamantane-1-yloxyy)-1-oxo-3-phenylpropane-2-yl]amino}-1-methoxy-2-methyl-3-oxopropyl]pyrrolidin-1-yl}-3-methoxy-5-methyl-1-oxoheptan-4-yl]-N-methyl-L-valinamide] ({NMeVal(N-(CH2)3COOH)}-V[Dil][Dolaproine]F-X6)
- IC50 [1]: 2.2 nM

SMILES: CC[C@H](C)[C@@H]([C@@H](CC(=O)N1CCC[C@H]1[C@H](OC)[C@@H](C)C(=O)N[C@@H](Cc1ccccc1)C(=O)OCC12CC3CC(CC(C3)C1)C2)OC)N(C)C(=O)[C@@H](NC(=O)[C@H](C(C)C)N(C)CCCC(=O)O)C(C)C [Example 3, N-(3-carboxypropyl)-N-methyl-L-valyl-N-[(3R,4S,5S)-1-{(2S)-2-[(1R,2R)-3-{[(2S)-1-(adamantane-1-ylmethoxy)-1-oxo-3-phenylpropane-2-yl]amino}-1-methoxy-2-methyl-3-oxopropyl]pyrrolidin-1-yl}-3-methoxy-5-methyl-1-oxoheptan-4-yl]-N-methyl-L-valinamide] ({NMeVal(N-(CH2)3COOH)}-V[Dil][Dolaproine]F-X4)
- IC50 [1]: 0.7 nM

SMILES: CC[C@H](C)[C@@H]([C@@H](CC(=O)N1CCC[C@H]1[C@H](OC)[C@@H](C)C(=O)N[C@H](COCc1ccccc1)Cc1ccccc1)OC)N(C)C(=O)[C@@H](NC(=O)[C@H](C(C)C)N(C)CCCC(=O)O)C(C)C [Example 4, N-(3-carboxypropyl)-N-methyl-L-valyl-N-[(3R,4S,5S)-1-{(2S)-2-[(1R,2R)-3-{[(2S)-1-(benzyloxy)-3-phenylpropane-2-yl]amino}-1-methoxy-2-methyl-3-oxopropyl]pyrrolidin-1-yl}-3-methoxy-5-methyl-1-oxoheptan-4-yl]-N-methyl-L-valinamide]
- IC50 [1]: 0.8 nM
- IC50 (HT-29 wt cell line): 0.1 nM

SMILES: CC[C@H](C)[C@@H]([C@@H](CC(=O)N1CCC[C@H]1[C@H](OC)[C@@H](C)C(=O)N[C@@H](Cc1ccccc1)C(=O)OCc1ccccc1)OC)N(C)C(=O)[C@@H](NC(=O)[C@H](C(C)C)N(C)CCCC(=O)O)C(C)C [Example 5, N-(3-carboxypropyl)-N-methyl-L-valyl-N-[(3R,4S,5S)-1-{(2S)-2-[(1R,2R)-3-{[(2S)-1-(benzyloxy)-1-oxo-3-phenylpropan-2-yl]amino}-1-methoxy-2-methyl-3-oxopropyl]pyrrolidin-1-yl}-3-methoxy-5-methyl-1-oxoheptan-4-yl]-N-methyl-L-valinamide] ({NMeVal(N-(CH2)3COOH)}-V[Dil][Dolaproine]F-OBn)
- IC50 [1]: 0.2 nM

SMILES: CC[C@H](C)[C@@H]([C@@H](CC(=O)N1CCC[C@H]1[C@H](OC)[C@@H](C)C(=O)N[C@H](C(=O)OCc1ccccc1)[C@@H](C)c1ccccc1)OC)N(C)C(=O)[C@@H](NC(=O)[C@H](C(C)C)N(C)CCCC(=O)O)C(C)C [Example 6, N-(3-carboxypropyl)-N-methyl-L-valyl-N-[(3R,4S,5S)-1-{(2S)-2-[(1R,2R)-3-{[(2S,3S)-1-(benzyloxy)-1-oxo-3-phenylbutane-2-yl]amino}-1-methoxy-2-methyl-3-oxopropyl]pyrrolidin-1-yl}-3-methoxy-5-methyl-1-oxoheptan-4-yl]-N-methyl-L-valinamide]
- IC50 [1]: 1.1 nM
- IC50 (HT-29 wt cell line): 0.4 nM

SMILES: CC[C@H](C)[C@@H]([C@@H](CC(=O)N1CCC[C@H]1[C@H](OC)[C@@H](C)C(=O)N[C@@H](Cc1ccccc1)C(=O)N(C)Cc1ccccc1)OC)N(C)C(=O)[C@@H](NC(=O)[C@H](C(C)C)N(C)CCCC(=O)O)C(C)C [Example 9, N-(3-carboxypropyl)-N-methyl-L-valyl-N-[(3R,4S,5S)-1-{(2S)-2-[(1R,2R)-3-({(2S)-1-[benzyl(methyl)amino]-1-oxo-3-phenylpropane-2-yl}amino)-1-methoxy-2-methyl-3-oxopropyl]pyrrolidin-1-yl}-3-methoxy-5-methyl-1-oxoheptan-4-yl]-N-methyl-L-valinamide] ({NMeVal(N-(CH2)3COOH)}-V[Dil][Dolaproine]F-{NMe(benzyl)})
- IC50 [1]: 53 nM
- IC50 (HT-29 wt cell line): 4.4 nM

SMILES: CC[C@H](C)[C@@H]([C@@H](CC(=O)N1CCC[C@H]1[C@H](OC)[C@@H](C)C(=O)N[C@@]1(C(=O)OCc2ccccc2)C[C@@H]1c1ccccc1)OC)N(C)C(=O)[C@@H](NC(=O)[C@H](C(C)C)N(C)CCCC(=O)O)C(C)C [Example 10, N-(3-carboxypropyl)-N-methyl-L-valyl-N-[(3R,4S,5S)-1-{(2S)-2-[(1R,2R)-3-({(1S,2R)-1-[(benzyloxy)carbonyl]-2-phenylcyclopropyl}amino)-1-methoxy-2-methyl-3-oxopropyl]pyrrolidin-1-yl}-3-methoxy-5-methyl-1-oxoheptan-4-yl]-N-methyl-L-valinamide]
- IC50 [1]: 81 nM

SMILES: CC[C@H](C)[C@@H]([C@@H](CC(=O)N1CCC[C@H]1[C@H](OC)[C@@H](C)C(=O)N[C@@H](Cc1ccccc1)C(=O)NCc1ccccc1)OC)N(C)C(=O)[C@@H](NC(=O)[C@H](C(C)C)N(C)CCCC(=O)O)C(C)C [Example 15, N-(3-carboxypropyl)-N-methyl-L-valyl-N-[(3R,4S,5S)-1-{(2S)-2-[(1R,2R)-3-{[(2S)-1-(benzylamino)-1-oxo-3-phenylpropan-2-yl]amino}-1-methoxy-2-methyl-3-oxopropyl]pyrrolidin-1-yl}-3-methoxy-5-methyl-1-oxoheptan-4-yl]-N-methyl-L-valinamide] ({NMeVal(N-(CH2)3COOH)}-V[Dil][Dolaproine]F-NHBn)
- IC50 [1]: 0.9 nM

SMILES: CC[C@H](C)[C@@H]([C@@H](CC(=O)N1CCC[C@H]1[C@H](OC)[C@@H](C)C(=O)N[C@@H](Cc1c[nH]c2ccccc12)C(=O)NCc1ccccc1)OC)N(C)C(=O)[C@@H](NC(=O)[C@H](C(C)C)N(C)CCCC(=O)O)C(C)C [Example 16, N-(3-carboxypropyl)-N-methyl-L-valyl-N-[(3R,4S,5S)-1-{(2S)-2-[(1R,2R)-3-{[(2S)-1-(benzyl-amino)-3-(1H-indol-3-yl)-1-oxopropane-2-yl]amino}-1-methoxy-2-methyl-3-oxopropyl]pyrrolidin-1-yl}-3-methoxy-5-methyl-1-oxoheptan-4-yl]-N-methyl-L-valinamide] ({NMeVal(N-(CH2)3COOH)}-V[Dil][Dolaproine]W-NHBn)
- IC50 [1]: 12 nM
- IC50 (HT-29 wt cell line): 0.1 nM

SMILES: CC[C@H](C)[C@@H]([C@@H](CC(=O)N1CCC[C@H]1[C@H](OC)[C@@H](C)C(=O)N[C@@H](Cc1ccccc1)C(=O)OC(C)(C)C)OC)N(C)C(=O)[C@@H](NC(=O)[C@H](C(C)C)N(C)CCCC(=O)O)C(C)C [Example 20, N-(3-carboxypropyl)-N-methyl-L-valyl-N-[(3R,4S,5S)-1-{(2S)-2-[(1R,2R)-3-{[(2S)-1-tert.-butoxy-1-oxo-3-phenylpropane2-yl]amino}-1-methoxy-2-methyl-3-oxopropyl]pyrrolidin-1-yl}-3-methoxy-5-methyl-1-oxoheptan-4-yl]-N-methyl-L-valinamide] ({NMeVal(N-(CH2)3COOH)}-V[Dil][Dolaproine]F-OtBu)
- IC50 [1]: 0.3 nM

SMILES: CC[C@H](C)[C@@H]([C@@H](CC(=O)N1CCC[C@H]1[C@H](OC)[C@@H](C)C(=O)N[C@@H](Cc1c[nH]c2ccccc12)C(=O)NCc1ccccc1)OC)N(C)C(=O)[C@@H](NC(=O)[C@H](C(C)C)N(C)CCCCCC(=O)O)C(C)C [Example 28, N-(5-carboxypentyl)-N-methyl-L-valyl-N-[(3R,4S,5S)-1-{(2S)-2-[(1R,2R)-3-{[(2S)-1-(benzylamino)-3-(1H-indol-3-yl)-1-oxopropane-2-yl]amino}-1-methoxy-2-methyl-3-oxopropyl]pyrrolidin-1-yl}-3-methoxy-5-methyl-1-oxoheptan-4-yl]-N-methyl-L-valinamide] (X3-V[Dil][Dolaproine]W-NHBn)
- IC50 (HT-29 wt cell line): 1.3 nM
